Data: article PMC6472409, “Dishevelled-3 conformation dynamics analyzed by FRET-based biosensors reveals a key role of casein kinase 1” (Nature Communications, 2019)
Values joined by “and” are separate entries in the source; they are usually repeats but may differ in a detail not shown here. Equal entries are not always repeated.

Key:
[1] = tested on: DVL3 membrane recruitment by FZD6 in HEK293 cells; experiment: FZD6-dependent membrane recruitment of DVL3, immunofluorescence; assay type: cell-based, human; parameters: key to Non-recruited (DVL3 membrane recruitment): number of cells out of 100 positive cells scored; details: Fig 8c
Excerpt: First, we analyzed the preferred subcellular localization of DVL3 (as introduced in Fig. 2c)[10],[14]. […] Next, we investigated if DVL3 conformation correlates with the capacity of DVL3 to be recruited by FZD6, a key Wnt receptor, to the plasma membrane. For this purpose, we co-expressed FZD6 and analyzed membrane recruitment of DVL3 in FZD6-positive cells by immunofluorescence. Individual cells were categorized as: not recruited (Fig. 8b, no DVL3 in the membrane), partially recruited (clear membrane as well as cytoplasmic localization), and fully recruited (predominantly plasma membrane localization, Fig. 8c, left). […] In the last readout we analyzed the capacity of DVL3 to activate downstream Wnt/β-catenin pathway monitored by TopFlash reporter assay (Fig. 8d). […] On the other hand, under conditions that favor the open conformation both activation as well as inhibition of the Wnt/β-catenin pathway was evident.
For immunofluorescence, cells were seeded (40,000 per well) on 24-well plates with gelatin-coated coverslips and transfected, as indicated, with 0.1 μg of each corresponding plasmid (0.3 μg of mCherry-FZD6) for 6 h. For western blotting and Dual Luciferase TopFlash/Renilla Reporter Assay, cells were seeded (60,000 per well) directly on 24-well plates with 0.1 μg of each corresponding plasmid (if not indicated otherwise) for 6 h. For coimmunoprecipitation, cells were seeded (4.4 × 10^6) on 10-cm dishes and transfected with 1 μg of each corresponding plasmid. The next day after seeding, cells were transfected using polyethyleneimine (PEI) in a stoichiometry of 6 μl of PEI per 1 μg of DNA for 6 h and were harvested 24 h after transfection. The following plasmids used in HEK293 cells have been described previously: FLAG-DVL3 wt[47], CK1ϵ wt[48], mCherry-FZD6 (ref. [37]), and dominant-negative CK1ϵ P3 (ref. [33]). The ECFP-DVL3 wt plasmid was made by Gateway Technology (via LR recombination according to the manufacturer’s instructions; Thermo Fisher Scientific, #11791020) from the donor plasmid pDONR221 DVL3 (DNASU, #FLH178665.01x) and the destination plasmid pdECFP (LMBP, #4548). The HA-DVL3 wt plasmid was made by Gateway Technology from the donor plasmid pDONR221 DVL3 (DNASU, #FLH178665.01x) and the destination plasmid pcDNA3.1 N-term HA (gift from Erich Nigg).
Cells were seeded on gelatin-coated coverslips in 24-well plates and were transfected the next day. Cells were fixed 24 h later in fresh 4% paraformaldehyde, permeabilized with 0.5% Triton X-100, blocked with PBS/BSA/Triton/Azide buffer (PBTA) [3% (wt/vol) BSA, 0.25% Triton, 0.01% NaN3] for 1 h, and incubated overnight with primary antibodies (in dilution 1:500) in PBTA at 4 °C. The next day, the coverslips were washed in PBS and incubated with secondary antibodies conjugated to Alexa Fluor 488 (Invitrogen A11001) or/and Alexa Fluor 594 (Invitrogen A11058) (all in dilution 1:1000), washed with PBS [in case of samples containing FLAG-DVL3 WT and derived variants stained with DAPI (1:5000)], and all coverslips were mounted on microscopic slides. Cells were then visualized on an Olympus IX51 fluorescent microscope using ×40 air or ×100 oil objectives and/or an Olympus Fluoview 500 confocal laser scanning microscope IX71 using ×100 oil objective. One hundred positive cells per experiment (n = 3) were analyzed and scored according to their phenotype into two/three categories (punctae/even); or non-recruited/partially/fully recruited for FZD6-dependent recruitment of DVL3. The antibodies used were as follows: anti-FLAG M2 (Sigma-Aldrich, #F1804), anti-DVL3 (Santa Cruz, #sc-8027), anti-CK1ɛ (Santa Cruz, #sc-6471), anti-RFP (Chromotek, #5h9) and anti-GFP (Fitzgerald, #20R-GR-011).

[2] = tested on: DVL3 subcellular localization in HEK293 cells; experiment: DVL3 subcellular localization (punctae/even), immunofluorescence; assay type: cell-based, human
Wnt/β-catenin pathway = experiment: Dual Luciferase TopFlash/Renilla Reporter Assay; assay type: cell-based, human; details: for TopFlash relative to ctrl (= 1): Suppl. Fig. 2a; for TopFlash FlAsH III (CK1e-/-), relative to ctrl (= 1): Suppl. Fig. 4f, CK1e-/- cells
Procedure: Cells were transfected 24 h after seeding with 0.1 μg of Super8X TopFlash construct, 0.1 μg of Renilla luciferase construct, and 0.1 μg of corresponding plasmids per well for 6 h in a 24-well plate. As for the ECFP-DVL3 FIII wt stable cell lines, transfection was followed by 4 h induction of tetracycline (1 µg/ml) and 8 h treatment of CM:DMEM (1:1 ratio). For performing this assay, Promega Dual Luciferase assay kit (Promega, #E1910) was used according to the manufacturer’s instructions. Luminescence was measured by a Hidex Bioscan Plate Chameleon Luminometer. Results are depicted as the ratio of TopFlash and Renilla signal (TopFlash fold induction), which was normalized for each experiment to certain control column (normalized TopFlash fold induction). Data were analyzed by MS Excel 2007 and GraphPad Prism 6 and results were shown as the means ± S.D. (number of experiments indicated ad hoc).

Xenopus laevis embryos = experiment: Convergent extension (CE) / neural tube defects in Xenopus embryos (Wnt/PCP readout); assay type: in vivo; details: Dorsal injection, 100pg/embryo
Excerpt: In the cell culture model we were unable to dissect the effects on the non-canonical Wnt/PCP pathway, and as such we turned into the Xenopus embryo model. Alterations in the Wnt/PCP pathway activity result in the convergent extension (CE) defects (Supplementary Fig. 7b, right). In order to avoid any artifacts, we tested the constitutively open and closed variants of xDvl3 based on point mutations or small deletions—namely open xDvl3 ΔC and xDvl3 (S267E/S310E) and closedxDvl3 (S267A/S310A). Phosphorylation sites in the PDZ domain are fully conserved between human and Xenopus (for alignment see Supplementary Fig. 5a) and hDVL3 S268/S311 corresponds to xDvl3 S267/S310.
The work with Xenopus laevis was carried out according to the German animal use and care law (Das Tierschutzgesetz) and approved by the local authorities and committees (animal care and housing approval: I/39/EE006, Veterinäramt Erlangen; animal experiments approval: 54-2532.2-8/08, German state administration Bavaria/Regierung von Mittelfranken). The generation and cultivation of Xenopus embryos was done in accordance with general protocols and staged after the normal table of Niewkoop and Faber (1994)[53].
RNA for microinjection was synthesized from plasmids pCS2 myc-xDvl3 (ref. [54]), pCS2 myc-xDvl3 ΔALL (lacking sequence corresponding to aa 338–350, 609–619, and 693–705 in xDvl3), pCS2 xDvl3 (S267A/S310A), pCS2 xDvl3 (S267E/S310E), pCS2 xDvl3 ΔC, and pCS2 xCK1ε[55], respectively, using the mMessage mMachine Kit (Ambion). Embryos were injected at the four-cell stage either into the two ventral blastomeres for testing the constructs' ability to induce a secondary body axis. Injection amounts of synthetic RNA were 500 pg for myc-xDvl3 wild type and the myc-xDvl3 ∆ALL variant, and 150 pg for xCK1ε RNA. For the analysis of morphogenetic defects, four-cell stage embryos were injected into the two dorsal blastomeres with 100 pg myc-xDvl3 RNA and the corresponding variant RNAs. After injection, the embryos were cultivated until they reached stage 26, fixed, and analyzed for axis duplication or morphogenetic defects, respectively.

[3] = Fig 2c, DVL3-FLAG, 10 μM inhibitor, replicate 1, 100 cells
[4] = Fig 8b, ECFP-DVL3 wt, HEK293 wt, inhibitor, exp1-exp3, 100 cells each, listed as INH
[5] = sensor FlAsH III, replicate of grid row r5
[6] = sensor FlAsH III, replicate of grid row r6
[7] = sensor FlAsH III, replicate of grid row r7

Nc1nccc(-c2c(-c3ccc(F)cc3)ncn2C2CCCCC2)n1 [PF670462, reference compound]
Fully recruited (DVL3 membrane recruitment) ([1]; exp1): 1
Non-recruited (DVL3 membrane recruitment) ([1]; exp1): 77
Partially recruited (DVL3 membrane recruitment) ([1]; exp1): 22
Fully recruited (DVL3 membrane recruitment) ([1]; exp2): 10
Non-recruited (DVL3 membrane recruitment) ([1]; exp2): 66
Partially recruited (DVL3 membrane recruitment) ([1]; exp2): 24
Fully recruited (DVL3 membrane recruitment) ([1]; exp3): 15
Non-recruited (DVL3 membrane recruitment) ([1]; exp3): 59
Partially recruited (DVL3 membrane recruitment) ([1]; exp3): 26
Even (%) [2, 3]: 1%
Punctae (%) [2, 3]: 99%
Punctae (%) ([2]; Fig 2c, DVL3-FLAG, 10 μM inhibitor, replicate 2, 100 cells): 98%
Punctae (%) ([2]; Fig 2c, DVL3-FLAG, 10 μM inhibitor, replicate 3, 100 cells): 99%
Even (%) [2, 4]: 5% and 11% and 8%
Punctae (%) [2, 4]: 95% and 89% and 92%
TopFlash/Renilla activation, in words (Wnt/β-catenin pathway; DVL3 wt + inhibitor, HEK293 cells, Fig 8d): no (or negligible) TopFlash/Renilla activation
TopFlash relative to DVL3 wt (= 1) (Wnt/β-catenin pathway; Fig 8d, replicate of grid row r4): 0.13
TopFlash relative to DVL3 wt (= 1) (Wnt/β-catenin pathway; Fig 8d, replicate of grid row r5): 0.1
TopFlash relative to DVL3 wt (= 1) (Wnt/β-catenin pathway; Fig 8d, replicate of grid row r6): 0.2
TopFlash relative to ctrl (= 1) (Wnt/β-catenin pathway; sensor FlAsH I, replicate of grid row r5): 0.09288
TopFlash relative to ctrl (= 1) (Wnt/β-catenin pathway; sensor FlAsH I, replicate of grid row r6): 0.06555
TopFlash relative to ctrl (= 1) (Wnt/β-catenin pathway; sensor FlAsH I, replicate of grid row r7): 0.095
TopFlash relative to ctrl (= 1) (Wnt/β-catenin pathway; sensor FlAsH II, replicate of grid row r5): 0.04123
TopFlash relative to ctrl (= 1) (Wnt/β-catenin pathway; sensor FlAsH II, replicate of grid row r6): 0.0401
TopFlash relative to ctrl (= 1) (Wnt/β-catenin pathway; sensor FlAsH II, replicate of grid row r7): 0.09362
TopFlash relative to ctrl (= 1) (Wnt/β-catenin pathway; [5]): 0.07646
TopFlash relative to ctrl (= 1) (Wnt/β-catenin pathway; [6]): 0.1238
TopFlash relative to ctrl (= 1) (Wnt/β-catenin pathway; [7]): 0.1277
TopFlash relative to ctrl (= 1) (Wnt/β-catenin pathway; sensor FlAsH IV, replicate of grid row r5): 0.0466
TopFlash relative to ctrl (= 1) (Wnt/β-catenin pathway; sensor FlAsH IV, replicate of grid row r6): 0.04626
TopFlash relative to ctrl (= 1) (Wnt/β-catenin pathway; sensor FlAsH IV, replicate of grid row r7): 0.05626
TopFlash FlAsH III (CK1e-/-), relative to ctrl (= 1) (Wnt/β-catenin pathway; [5]): 0.8229
TopFlash FlAsH III (CK1e-/-), relative to ctrl (= 1) (Wnt/β-catenin pathway; [6]): 0.6189
TopFlash FlAsH III (CK1e-/-), relative to ctrl (= 1) (Wnt/β-catenin pathway; [7]): 1.097

B1: WT-Dvl3 (protein, UniProt Q92997 1-716, looked up)
Segment polarity protein …: MGETKIIYHLDGQETPYLVKLPLPAERVTLADFKGVLQRPSYKFFFKSMDDDFGVVKEEISDDNAKLPCFNGRVVSWLVSAEGSHPDPAPFCADNPSELPPPMERTGGIGDSRPPSFHPHAGGGSQENLDNDTETDSLVSAQRERPRRRDGPEHATRLNGTAKGERRREPGGYDSSSTLMSSELETTSFFDSDEDDSTSRFSSSTEQSSASRLMRRHKRRRRKQKVSRIERSSSFSSITDSTMSLNIITVTLNMEKYNFLGISIVGQSNERGDGGIYIGSIMKGGAVAADGRIEPGDMLLQVNEINFENMSNDDAVRVLREIVHKPGPITLTVAKCWDPSPRGCFTLPRSEPIRPIDPAAWVSHTAAMTGTFPAYGMSPSLSTITSTSSSITSSIPDTERLDDFHLSIHSDMAAIVKAMASPESGLEVRDRMWLKITIPNAFIGSDVVDWLYHNVEGFTDRREARKYASNLLKAGFIRHTVNKITFSEQCYYIFGDLCGNMANLSLHDHDGSSGASDQDTLAPLPHPGAAPWPMAFPYQYPPPPHPYNPHPGFPELGYSYGGGSASSQHSEGSRSSGSNRSGSDRRKEKDPKAGDSKSGGSGSESDHTTRSSLRGPRERAPSERSGPAASEHSHRSHHSLASSLRSHHTHPSYGPPGVPPLYGPPMLMMPPPPAAMGPPGAPPGRDLASVPPELTASRQSFRMAMGNPSEFFVDVM
open neural tube (number of embryos) (Xenopus laevis embryos; 1. Injection): 3
open neural tube (number of embryos) (Xenopus laevis embryos; 2. Injection): 1
shortened AP axis (number of embryos) (Xenopus laevis embryos; 2. Injection): 0
open neural tube (number of embryos) (Xenopus laevis embryos; 3. Injection): 0
shortened AP axis (number of embryos) (Xenopus laevis embryos; 3. Injection): 0
open NT (number of embryos) (Xenopus laevis embryos; Graph: sum of injections 1-3): 4
